According to ChEMBL document CHEMBL1800013, “Small molecule inhibitors of SHP2 tyrosine phosphatase discovered by virtual screening” (Bioorg Med Chem Lett, 2011):
Active and inactive are the calls of the source. The calls are words filed in the database; no cut-off is given here.

Experiments:
[1] = target: T1, Receptor-type tyrosine-protein phosphatase C (Homo sapiens, UniProt P08575); experiment: Inhibition of CD45
T1 sequence (P08575 whole entry): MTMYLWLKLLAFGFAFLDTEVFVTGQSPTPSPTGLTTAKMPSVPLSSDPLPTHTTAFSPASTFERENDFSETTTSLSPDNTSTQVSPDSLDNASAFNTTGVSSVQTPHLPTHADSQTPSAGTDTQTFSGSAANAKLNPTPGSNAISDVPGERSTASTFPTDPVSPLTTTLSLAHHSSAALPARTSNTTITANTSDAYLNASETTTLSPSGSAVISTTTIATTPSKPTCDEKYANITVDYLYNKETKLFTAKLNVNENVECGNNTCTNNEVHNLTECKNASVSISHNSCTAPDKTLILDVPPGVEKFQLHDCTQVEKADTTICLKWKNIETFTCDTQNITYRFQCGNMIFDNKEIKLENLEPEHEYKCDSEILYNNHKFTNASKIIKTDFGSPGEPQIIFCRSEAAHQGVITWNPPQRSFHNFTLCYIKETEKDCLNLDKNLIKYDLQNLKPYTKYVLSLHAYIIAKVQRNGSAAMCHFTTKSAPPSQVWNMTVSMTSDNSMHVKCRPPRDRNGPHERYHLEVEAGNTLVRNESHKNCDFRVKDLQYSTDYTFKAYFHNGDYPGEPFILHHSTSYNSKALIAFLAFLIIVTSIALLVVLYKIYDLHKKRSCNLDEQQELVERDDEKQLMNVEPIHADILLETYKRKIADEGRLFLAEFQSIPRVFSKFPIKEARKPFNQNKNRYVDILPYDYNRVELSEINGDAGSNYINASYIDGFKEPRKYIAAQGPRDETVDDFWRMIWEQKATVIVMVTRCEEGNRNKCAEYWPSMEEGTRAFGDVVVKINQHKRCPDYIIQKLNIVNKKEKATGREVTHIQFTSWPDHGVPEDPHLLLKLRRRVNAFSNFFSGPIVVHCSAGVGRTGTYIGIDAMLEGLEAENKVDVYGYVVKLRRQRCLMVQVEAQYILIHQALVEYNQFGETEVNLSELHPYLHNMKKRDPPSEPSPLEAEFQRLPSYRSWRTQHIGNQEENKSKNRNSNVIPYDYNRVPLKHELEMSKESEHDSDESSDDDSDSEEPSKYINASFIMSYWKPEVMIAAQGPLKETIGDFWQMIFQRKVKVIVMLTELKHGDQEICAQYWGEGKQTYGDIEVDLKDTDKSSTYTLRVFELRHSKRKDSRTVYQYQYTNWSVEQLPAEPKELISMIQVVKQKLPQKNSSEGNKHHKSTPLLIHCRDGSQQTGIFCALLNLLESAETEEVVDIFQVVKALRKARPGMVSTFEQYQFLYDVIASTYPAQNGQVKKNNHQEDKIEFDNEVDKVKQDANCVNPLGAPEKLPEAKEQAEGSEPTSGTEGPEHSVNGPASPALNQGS

[2] = target: T2, Tyrosine-protein phosphatase non-receptor type 22 (Homo sapiens) (UniProt Q9Y2R2); experiment: Inhibition of LYP at 100 uM
T2 sequence (whole entry): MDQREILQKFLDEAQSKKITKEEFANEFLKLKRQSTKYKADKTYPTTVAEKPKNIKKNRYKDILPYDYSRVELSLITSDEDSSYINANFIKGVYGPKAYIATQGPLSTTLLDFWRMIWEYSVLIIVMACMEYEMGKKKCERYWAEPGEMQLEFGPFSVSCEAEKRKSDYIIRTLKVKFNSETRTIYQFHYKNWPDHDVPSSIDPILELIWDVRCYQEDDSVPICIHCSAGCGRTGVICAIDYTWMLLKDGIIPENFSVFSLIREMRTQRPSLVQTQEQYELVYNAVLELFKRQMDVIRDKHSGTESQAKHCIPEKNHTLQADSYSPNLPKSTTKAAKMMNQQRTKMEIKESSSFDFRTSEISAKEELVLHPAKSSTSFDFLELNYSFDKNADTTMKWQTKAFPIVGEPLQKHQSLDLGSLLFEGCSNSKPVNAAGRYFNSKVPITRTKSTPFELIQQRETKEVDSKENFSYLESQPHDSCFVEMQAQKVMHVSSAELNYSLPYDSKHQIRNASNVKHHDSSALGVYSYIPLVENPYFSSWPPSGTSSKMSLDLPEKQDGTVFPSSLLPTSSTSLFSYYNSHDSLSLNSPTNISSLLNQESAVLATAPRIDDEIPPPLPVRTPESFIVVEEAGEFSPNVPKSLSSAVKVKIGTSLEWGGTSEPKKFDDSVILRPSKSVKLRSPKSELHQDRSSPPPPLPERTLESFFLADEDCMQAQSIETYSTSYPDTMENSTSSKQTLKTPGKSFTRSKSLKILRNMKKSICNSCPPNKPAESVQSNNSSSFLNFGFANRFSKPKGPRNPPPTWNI

[3] = target: Receptor-type tyrosine-protein phosphatase F (Homo sapiens, UniProt P10586); experiment: Inhibition of LAR
Sequence of Receptor-type tyrosine-protein phosphatase F (P10586 whole entry): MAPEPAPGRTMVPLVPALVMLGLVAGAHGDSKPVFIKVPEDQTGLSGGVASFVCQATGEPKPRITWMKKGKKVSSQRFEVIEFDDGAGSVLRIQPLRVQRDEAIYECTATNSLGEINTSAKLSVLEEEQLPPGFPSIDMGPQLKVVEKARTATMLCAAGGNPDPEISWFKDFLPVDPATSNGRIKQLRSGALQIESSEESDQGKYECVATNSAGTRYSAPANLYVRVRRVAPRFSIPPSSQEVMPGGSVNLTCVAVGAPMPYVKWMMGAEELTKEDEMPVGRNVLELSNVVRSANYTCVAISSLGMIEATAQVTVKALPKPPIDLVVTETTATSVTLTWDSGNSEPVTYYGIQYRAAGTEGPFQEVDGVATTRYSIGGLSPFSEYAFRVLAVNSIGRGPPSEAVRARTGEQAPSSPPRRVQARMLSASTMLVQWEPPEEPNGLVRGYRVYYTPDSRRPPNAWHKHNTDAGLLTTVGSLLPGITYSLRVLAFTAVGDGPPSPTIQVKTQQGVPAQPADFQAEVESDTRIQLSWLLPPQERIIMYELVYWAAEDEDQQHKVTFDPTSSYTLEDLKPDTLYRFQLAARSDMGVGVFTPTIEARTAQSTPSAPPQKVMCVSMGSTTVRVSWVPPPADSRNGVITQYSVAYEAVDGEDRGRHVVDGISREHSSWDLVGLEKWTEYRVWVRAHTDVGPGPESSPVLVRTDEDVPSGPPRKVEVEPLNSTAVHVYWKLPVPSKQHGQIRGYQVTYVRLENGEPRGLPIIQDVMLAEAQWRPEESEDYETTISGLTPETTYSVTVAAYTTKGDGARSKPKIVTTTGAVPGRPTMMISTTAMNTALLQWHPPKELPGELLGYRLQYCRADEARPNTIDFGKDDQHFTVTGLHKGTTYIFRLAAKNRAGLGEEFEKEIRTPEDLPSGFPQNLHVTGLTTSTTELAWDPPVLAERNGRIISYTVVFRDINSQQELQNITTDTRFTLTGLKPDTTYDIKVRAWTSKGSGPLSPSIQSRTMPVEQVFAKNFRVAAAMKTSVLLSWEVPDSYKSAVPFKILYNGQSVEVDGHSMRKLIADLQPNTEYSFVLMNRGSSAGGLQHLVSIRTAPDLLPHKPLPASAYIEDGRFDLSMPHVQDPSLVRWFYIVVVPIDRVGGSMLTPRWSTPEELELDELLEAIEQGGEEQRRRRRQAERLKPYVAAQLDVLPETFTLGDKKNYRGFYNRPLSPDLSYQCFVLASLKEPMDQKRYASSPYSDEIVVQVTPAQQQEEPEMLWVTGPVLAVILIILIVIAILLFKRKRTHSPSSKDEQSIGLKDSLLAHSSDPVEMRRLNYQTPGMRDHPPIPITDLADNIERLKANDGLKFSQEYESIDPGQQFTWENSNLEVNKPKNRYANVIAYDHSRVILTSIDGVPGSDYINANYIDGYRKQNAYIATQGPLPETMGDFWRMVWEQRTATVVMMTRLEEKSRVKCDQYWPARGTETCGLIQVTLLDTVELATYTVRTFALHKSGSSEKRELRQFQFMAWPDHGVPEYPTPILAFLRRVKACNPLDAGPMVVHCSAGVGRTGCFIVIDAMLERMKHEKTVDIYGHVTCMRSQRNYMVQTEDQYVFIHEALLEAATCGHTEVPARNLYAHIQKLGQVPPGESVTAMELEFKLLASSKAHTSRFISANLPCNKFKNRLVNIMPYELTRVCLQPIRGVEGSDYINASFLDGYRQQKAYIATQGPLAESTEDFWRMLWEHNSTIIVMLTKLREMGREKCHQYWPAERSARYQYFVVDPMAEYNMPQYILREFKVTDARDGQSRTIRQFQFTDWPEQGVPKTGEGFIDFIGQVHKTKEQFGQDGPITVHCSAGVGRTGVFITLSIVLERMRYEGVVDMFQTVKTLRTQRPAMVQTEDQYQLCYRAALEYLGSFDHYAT

[4] = target: T3, Low molecular weight phosphotyrosine protein phosphatase (Homo sapiens, UniProt P24666); experiment: Inhibition of LMW-PTP
T3 sequence (P24666 whole entry): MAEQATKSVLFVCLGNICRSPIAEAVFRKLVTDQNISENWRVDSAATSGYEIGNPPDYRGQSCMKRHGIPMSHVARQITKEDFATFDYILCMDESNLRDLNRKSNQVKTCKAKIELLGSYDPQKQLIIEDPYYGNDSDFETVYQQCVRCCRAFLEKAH

[5] = target: Receptor-type tyrosine-protein phosphatase alpha (Homo sapiens) (UniProt P18433); experiment: Inhibition of PTPalpha at 100 uM
Sequence of Receptor-type tyrosine-protein phosphatase alpha (Homo sapiens) (P18433 20-802 limits assumed): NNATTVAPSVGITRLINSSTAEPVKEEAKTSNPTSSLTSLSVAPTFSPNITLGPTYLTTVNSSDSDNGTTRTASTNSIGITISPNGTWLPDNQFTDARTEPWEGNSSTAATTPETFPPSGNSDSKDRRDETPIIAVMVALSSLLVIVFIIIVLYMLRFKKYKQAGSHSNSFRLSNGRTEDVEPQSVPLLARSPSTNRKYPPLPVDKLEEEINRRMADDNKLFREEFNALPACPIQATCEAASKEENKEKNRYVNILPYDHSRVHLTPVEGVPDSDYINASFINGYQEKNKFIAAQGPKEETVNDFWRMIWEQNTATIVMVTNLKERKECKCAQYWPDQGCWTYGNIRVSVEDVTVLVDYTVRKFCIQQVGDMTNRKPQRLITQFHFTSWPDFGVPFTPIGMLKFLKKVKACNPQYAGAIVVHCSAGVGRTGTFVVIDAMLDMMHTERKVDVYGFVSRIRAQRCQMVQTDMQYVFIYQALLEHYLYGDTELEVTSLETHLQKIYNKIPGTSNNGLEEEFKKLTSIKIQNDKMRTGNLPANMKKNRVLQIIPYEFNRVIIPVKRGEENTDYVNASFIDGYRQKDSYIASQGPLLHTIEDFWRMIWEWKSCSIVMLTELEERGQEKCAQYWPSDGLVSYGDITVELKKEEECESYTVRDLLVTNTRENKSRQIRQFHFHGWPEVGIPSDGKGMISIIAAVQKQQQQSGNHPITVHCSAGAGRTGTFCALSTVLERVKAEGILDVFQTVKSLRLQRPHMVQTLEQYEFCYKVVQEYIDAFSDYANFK

## Cc1cc(S(=O)(=O)O)c(S(=O)(=O)O)cc1N1N=C(C(=O)O)CC1=O
[1]
  IC50: > 100 µM
[2]
  inhibition: inactive
[3]
  IC50: > 100 µM
[4]
  IC50: > 100 µM
[5]
  inhibition: inactive
